Measured values published in the supplement of paper PMC10307832.

Columns and labels:
Experiment in all cases: relative viability (nuclei count vs DMSO), 5 days (fraction); higher = more cells survive
[1] = compound: C1=CC2=NC=CN=C2C=C1/C=C/3\C(=O)NC(=O)S3
Procedure, shortened: (§1)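 MetaXpress counted nuclei in 4× images of lung cancer cell lines that had been fixed, permeabilised and Hoechst-stained in one step. Before that, cells in 1536-well plates were kept overnight at 37 °C, pinned with five √10-spaced library-drug doses on vehicle-anchored plates, and cultured 5 days without medium change. Viability takes treated-well nuclei over vehicle-well nuclei and uses the median across plates. Plates were accepted only at control CV below 25% and at least one doubling.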

BGJ398 = compound: CCN1CCN(c2ccc(Nc3cc(N(C)C(=O)Nc4c(Cl)c(OC)cc(OC)c4Cl)ncn3)cc2)CC1 [BGJ398]
Procedure, shortened: as §1

[2] = compound: C1=CC2=NC=CN=C2C=C1/C=C/3\C(=O)NC(=O)S3 + CC1(C)CCC(c2ccc(Cl)cc2)=C(CN2CCN(c3ccc(C(=O)NS(=O)(=O)c4ccc(N[C@H](CCN5CCOCC5)CSc5ccccc5)c(S(=O)(=O)C(F)(F)F)c4)cc3)CC2)C1 [Navitoclax] (partner 0.5 µM)
Procedure, shortened: (§2)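 Values are medians from duplicate plates. Each reflects relative viability, defined as the nuclei count of treated wells over that of vehicle wells. Lung cancer cell lines in 1536-well plates were pin-tool dosed one day after seeding with one drug alone or with a fixed anchor-drug dose plus five library-drug doses (not always all listed) in √10 steps, then fixed, stained and imaged at 4× after 5 days.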

[3] = compound: C1=CC2=NC=CN=C2C=C1/C=C/3\C(=O)NC(=O)S3 + COc1cc2c(Oc3ccc(NC(=O)C4(C(=O)Nc5ccc(F)cc5)CC4)cc3F)ccnc2cc1OCCCN1CCOCC1 [Foretinib] (partner 0.25 µM)
Procedure, shortened: as §2

Row | Cell Line | relative viability ([1]; 0.02 µM) | relative viability ([1]; 0.06325 µM) | relative viability ([1]; 0.2 µM) | relative viability ([1]; 0.6325 µM) | relative viability ([1]; 2 µM) | relative viability (BGJ398; 0.01 µM) | relative viability (BGJ398; 0.03162 µM) | relative viability (BGJ398; 0.1 µM) | relative viability (BGJ398; 0.3162 µM) | relative viability (BGJ398; 1 µM) | relative viability ([2]; first compound 0.02 µM) | relative viability ([2]; first compound 0.06325 µM) | relative viability ([2]; first compound 0.2 µM) | relative viability ([2]; first compound 0.6325 µM) | relative viability ([2]; first compound 2 µM) | relative viability ([3]; first compound 0.02 µM) | relative viability ([3]; first compound 0.06325 µM) | relative viability ([3]; first compound 0.2 µM) | relative viability ([3]; first compound 0.6325 µM) | relative viability ([3]; first compound 2 µM)
1 | NCI-H1703 | 1.09 | 1.33 | 0.942 | 0.864 | 0.736 | 0.872 | 1.04 | 1.02 | 0.806 | 0.967 | 1.19 | 1.89 | 1.24 | 0.954 | 1 | 0.38 | 0.442 | 0.34 | 0.295 | 0.324
2 | PC-3 [JPC-3] | 0.991 | 1.07 | 1.06 | 1 | 1.04 | 1.05 |  | 1.05 | 0.695 | 0.919 | 0.744 | 0.765 | 0.783 | 0.749 | 0.766 | 0.997 | 1.14 | 1.02 | 1 | 1.06
3 | BEN | 0.922 | 0.922 | 1.03 | 0.961 | 0.839 | 0.891 | 0.964 | 0.947 | 0.845 | 0.809 | 0.0591 | 0.0567 | 0.065 | 0.0608 | 0.0653 | 0.787 | 0.869 | 0.693 | 0.666 | 0.473
4 | NCI-H1666 | 0.944 | 0.962 | 0.966 | 0.971 | 0.893 | 1 | 1.03 | 0.966 | 0.98 | 0.8 | 0.9 | 0.954 | 0.913 | 0.989 | 0.919 | 1.03 | 0.879 | 0.986 | 0.909 | 0.932
5 | LC-2-ad | 0.973 | 0.987 | 1.11 | 0.917 | 0.758 | 0.977 | 1.03 | 0.977 | 0.994 | 0.906 | 0.441 | 0.455 | 0.461 | 0.378 | 0.397 | 0.889 | 0.951 | 0.995 | 0.917 | 0.699
6 | SK-LU-1 | 1.06 | 1.21 | 1.09 | 1.02 | 0.969 | 0.983 | 1.07 | 1.22 | 0.978 | 1.03 | 0.84 | 0.765 | 1.02 | 0.854 | 0.868 | 0.861 | 0.968 | 0.751 | 0.785 | 0.791
7 | ChaGo-K-1 | 0.972 | 0.991 | 1.09 | 0.919 | 0.891 | 1.06 | 0.987 | 1.03 | 1.03 | 1.02 | 1.06 | 1.67 | 1.28 | 0.924 | 0.726 | 0.83 | 0.673 | 0.922 | 0.844 | 0.95
8 | COR-L 105 | 0.904 | 1.05 | 1.01 | 0.912 | 0.741 | 0.875 | 0.744 | 0.961 | 0.83 | 0.875 | 0.697 | 0.703 | 0.821 | 0.678 | 0.999 | 1 | 1.39 | 0.9 | 0.906 | 1.06
9 | NCI-H1975 | 0.842 | 1.02 | 0.964 | 0.884 | 0.813 | 0.876 | 1.06 | 1.09 | 0.937 | 0.866 | 0.998 | 1.12 | 1.04 | 0.974 | 0.981 | 0.904 | 1.03 | 0.992 | 0.866 | 0.84
10 | Calu-6 | 0.971 | 1.04 | 1.03 | 0.989 | 1 | 0.986 | 0.988 | 1.05 | 1.02 | 1.02 | 0.848 | 0.895 | 0.782 | 0.853 | 0.87 | 0.848 | 0.866 | 0.843 | 0.864 | 0.928
11 | NCI-H1993 | 0.815 | 0.956 | 1.02 | 0.923 | 0.622 | 1.24 | 0.893 | 0.957 | 0.972 | 0.886 | 0.759 | 0.982 | 0.921 | 0.956 | 0.743 | 0.694 | 0.817 | 0.72 | 0.748 | 0.578
12 | RERF-LC-KJ | 0.908 | 1.02 | 1 | 0.948 | 0.841 | 1.04 | 1.05 | 1.06 | 0.987 | 1.05 | 0.69 | 0.897 | 1.01 | 0.863 | 0.826 | 0.831 | 0.825 | 0.874 | 0.814 | 0.695
13 | NCI-H23 | 1.01 | 1.21 | 1.1 | 0.876 | 0.753 | 0.994 | 0.974 | 0.966 | 0.937 | 0.979 | 0.714 | 1.18 | 0.828 | 0.868 | 0.635 | 1.12 | 0.976 | 1.02 | 0.902 | 0.856
14 | HCC-366 | 0.979 | 0.787 | 1.01 | 0.942 | 0.985 | 1.01 | 1.01 | 1.07 | 1.08 | 0.974 | 1.1 | 0.776 | 1.1 | 1.1 | 0.897 | 0.916 |  | 0.863 | 0.901 | 0.985
15 | EMC-BAC-2 | 0.951 | 1.1 | 1.1 | 0.944 | 0.554 | 1.17 | 1.15 | 0.964 | 0.945 | 0.942 | 1.11 | 1.03 | 1.15 | 1.12 | 1.25 | 1.04 | 1.07 | 1.05 | 0.903 | 0.923
16 | NCI-H2405 | 1.08 | 1.02 | 1.02 | 1.01 | 0.394 | 1.04 | 1.11 | 0.99 | 1.01 | 0.958 | 0.751 | 1.14 | 0.938 | 0.947 | 0.755 | 1.06 | 1.12 | 1.13 | 1.03 | 0.838
